Calls of active or inactive are those of the source. The rule behind the calls is not given here.
Key:
MC3T3-E1 [1] = assay: Induction of osteogenesis in mouse MC3T3-E1 cells assessed as alkaline phosphatase secretion at 25 uM after 3 weeks by ELISA; type: functional, cell-based; conditions: MC3T3-E1, 504 h
MC3T3-E1 [2] = assay: Induction of osteogenesis in mouse MC3T3-E1 cells assessed as osteocalcin secretion at 25 uM after 3 weeks; type: functional, cell-based; conditions: MC3T3-E1, 504 h
MC3T3-E1 [3] = assay: Induction of osteogenesis in mouse MC3T3-E1 cells assessed as calcium level at 25 uM after 3 weeks; type: functional, cell-based; conditions: MC3T3-E1, 504 h
MC3T3-E1 [4] = assay: Inhibition of staurosporine-induced apoptosis in mouse MC3T3-E1 cells by caspase 3 colorimetric assay; type: functional, cell-based
[5] = Cytotoxicity against mouse MC3T3-E1 cells after 4 hrs by fluorescent Alamar blue assay; type: cell-based; conditions: mc3t3-e1, 4 h
[6] = Antiproliferative activity against mouse MC3T3-E1 cells after 24 hrs by BrdU incorporation assay; type: cell-based; conditions: mc3t3-e1, 24 h
[7] = Cytotoxicity against mouse MC3T3-E1 cells assessed as increase in apoptosis treated for 3 hrs measured after 22 hrs by caspase 3 colorimetric assay; type: cell-based

| SMILES | EC50 (MC3T3-E1 [1]) [nM] | EC50 (MC3T3-E1 [2]) [nM] | EC50 (MC3T3-E1 [3]) [nM] | Activity (MC3T3-E1 [4]) | Activity [5] | Activity [6] | Activity [7] |
| --- | --- | --- | --- | --- | --- | --- | --- |
| COc1cc2nccc(Oc3ccc4c(NC(=O)c5ccc(C)cc5)cccc4c3)c2cc1OC | 120 | 100 | 150 | – | – | – | – |
| COc1cc2nccc(Oc3ccc4c(C(=O)Nc5ccc(C)cc5)cccc4c3)c2cc1OC | 90 | 30 | 50 | inactive | Non-toxic | Dose-dependent effect | – |
| CN[C@@H]1C[C@H]2O[C@@](C)([C@@H]1OC)n1c3ccccc3c3c4c(c5c6ccccc6n2c5c31)C(=O)NC4 [STAUROSPORINE] | – | – | – | – | – | – | Non-toxic |
